Laboratory results: PubChem BioAssay AID2060906 (Molecular Pharmacology Branch, DTP, NCI, 2025)

Tested on: 485176-168-R4-J1-PDC complex spheroid growth
Assay: Anticancer human tumor 485176-168-R4-J1-PDC patient-derived pancreatic adenocarcinoma cell line growth inhibition [RAS]
Conditions: for IC50: curve of first compound; for viability, T/C: stronger effect = lower value
Outline: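 Agents were tested in combination matrices in half-log decrements from a top concentration at or near clinical Cmax (10 microM if undetermined). Targets were multi-cell spheroids of tumour lines plus HUVEC and MSC stromal cells.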

[1] = second compound 0.000949 µM, first compound 0.00316 µM
[2] = second compound 0.000949 µM, first compound 0.01 µM
[3] = second compound 0.000949 µM, first compound 0.0316 µM
[4] = second compound 0.000949 µM, first compound 0.1 µM
[5] = second compound 0.000949 µM, first compound 0.316 µM
[6] = second compound 0.000949 µM, first compound 1 µM
[7] = second compound 0.003 µM, first compound 0.00316 µM
[8] = second compound 0.003 µM, first compound 0.01 µM
[9] = second compound 0.003 µM, first compound 0.0316 µM
[10] = second compound 0.003 µM, first compound 0.1 µM
[11] = second compound 0.003 µM, first compound 0.316 µM
[12] = second compound 0.003 µM, first compound 1 µM
[13] = second compound 0.00949 µM, first compound 0.00316 µM
[14] = second compound 0.00949 µM, first compound 0.01 µM
[15] = second compound 0.00949 µM, first compound 0.0316 µM
[16] = second compound 0.00949 µM, first compound 0.1 µM
[17] = second compound 0.00949 µM, first compound 0.316 µM
[18] = second compound 0.00949 µM, first compound 1 µM
[19] = second compound 0.03 µM, first compound 0.00316 µM
[20] = second compound 0.03 µM, first compound 0.01 µM
[21] = second compound 0.03 µM, first compound 0.0316 µM
[22] = second compound 0.03 µM, first compound 0.1 µM
[23] = second compound 0.03 µM, first compound 0.316 µM
[24] = second compound 0.03 µM, first compound 1 µM
[25] = second compound 0.0949 µM, first compound 0.00316 µM
[26] = second compound 0.0949 µM, first compound 0.01 µM
[27] = second compound 0.0949 µM, first compound 0.0316 µM
[28] = second compound 0.0949 µM, first compound 0.1 µM
[29] = second compound 0.0949 µM, first compound 0.316 µM
[30] = second compound 0.0949 µM, first compound 1 µM
[31] = second compound 0.3 µM, first compound 0.00316 µM
[32] = second compound 0.3 µM, first compound 0.01 µM
[33] = second compound 0.3 µM, first compound 0.0316 µM
[34] = second compound 0.3 µM, first compound 0.1 µM
[35] = second compound 0.3 µM, first compound 0.316 µM
[36] = second compound 0.3 µM, first compound 1 µM
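Further: spheroids exposed to compounds for seven days before readout.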
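Wherever viability, T/C is given: luminescence viability expressed relative to DMSO vehicle wells set as 100%.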

CCN1CCN(Cc2ccc(Nc3ncc(F)c(-c4cc(F)c5nc(C)n(C(C)C)c5c4)n3)nc2)CC1 + C=CC(=O)N1CCN(c2nc(OCC3CCCN3C)nc3c(F)c(-c4nc(N)cc(C)c4C(F)(F)F)c(Cl)cc23)C(C)C1
IC50 (second compound 0.00316 µM): > 1000 nM
IC50 (second compound 0.01 µM): > 1000 nM
IC50 (second compound 0.0316 µM): > 1000 nM
IC50 (second compound 0.1 µM): > 1000 nM
IC50 (second compound 0.316 µM): > 1000 nM
IC50 (second compound 1 µM): > 1000 nM
viability, T/C (second compound 0.00316 µM, first compound 0.00316 µM): 102%
viability, T/C (second compound 0.00316 µM, first compound 0.01 µM): 92.7%
viability, T/C (second compound 0.00316 µM, first compound 0.0316 µM): 107%
viability, T/C (second compound 0.00316 µM, first compound 0.1 µM): 88.7%
viability, T/C (second compound 0.00316 µM, first compound 0.316 µM): 69.1%
viability, T/C (second compound 0.00316 µM, first compound 1 µM): 59.7%
viability, T/C (second compound 0.01 µM, first compound 0.00316 µM): 108%
viability, T/C (second compound 0.01 µM, first compound 0.01 µM): 90.1%
viability, T/C (second compound 0.01 µM, first compound 0.0316 µM): 108%
viability, T/C (second compound 0.01 µM, first compound 0.1 µM): 80.5%
viability, T/C (second compound 0.01 µM, first compound 0.316 µM): 80.2%
viability, T/C (second compound 0.01 µM, first compound 1 µM): 77.3%
viability, T/C (second compound 0.0316 µM, first compound 0.00316 µM): 101%
viability, T/C (second compound 0.0316 µM, first compound 0.01 µM): 89.8%
viability, T/C (second compound 0.0316 µM, first compound 0.0316 µM): 88.2%
viability, T/C (second compound 0.0316 µM, first compound 0.1 µM): 80.5%
viability, T/C (second compound 0.0316 µM, first compound 0.316 µM): 95.8%
viability, T/C (second compound 0.0316 µM, first compound 1 µM): 53.9%
viability, T/C (second compound 0.1 µM, first compound 0.00316 µM): 116%
viability, T/C (second compound 0.1 µM, first compound 0.01 µM): 102%
viability, T/C (second compound 0.1 µM, first compound 0.0316 µM): 89%
viability, T/C (second compound 0.1 µM, first compound 0.1 µM): 93.5%
viability, T/C (second compound 0.1 µM, first compound 0.316 µM): 83.7%
viability, T/C (second compound 0.1 µM, first compound 1 µM): 68.1%
viability, T/C (second compound 0.316 µM, first compound 0.00316 µM): 107%
viability, T/C (second compound 0.316 µM, first compound 0.01 µM): 108%
viability, T/C (second compound 0.316 µM, first compound 0.0316 µM): 77.5%
viability, T/C (second compound 0.316 µM, first compound 0.1 µM): 92%
viability, T/C (second compound 0.316 µM, first compound 0.316 µM): 75%
viability, T/C (second compound 0.316 µM, first compound 1 µM): 60.1%
viability, T/C (second compound 1 µM, first compound 0.00316 µM): 97.1%
viability, T/C (second compound 1 µM, first compound 0.01 µM): 92.6%
viability, T/C (second compound 1 µM, first compound 0.0316 µM): 111%
viability, T/C (second compound 1 µM, first compound 0.1 µM): 87%
viability, T/C (second compound 1 µM, first compound 0.316 µM): 83.9%
viability, T/C (second compound 1 µM, first compound 1 µM): 60%

Nc1ccn(C2OC(CO)C(O)C2(F)F)c(=O)n1 (stereo not drawn) + CCn1c(-c2cc(N3CCN(C)CC3)cnc2C(C)OC)c2c3cc(ccc31)-c1csc(n1)CC(NC(=O)C1CC1C)C(=O)N1CCCC(N1)C(=O)OCC(C)(C)C2
IC50 (second compound 0.000949 µM): 17 nM
IC50 (second compound 0.003 µM): 17.4 nM
IC50 (second compound 0.00949 µM): 18.2 nM
IC50 (second compound 0.03 µM): 12.5 nM
IC50 (second compound 0.0949 µM): 14.4 nM
IC50 (second compound 0.3 µM): 19.1 nM
viability, T/C [1]: 100%
viability, T/C [2]: 73.4%
viability, T/C [3]: 23.1%
viability, T/C [4]: 9.57%
viability, T/C [5]: 11.2%
viability, T/C [6]: 11.5%
viability, T/C [7]: 94%
viability, T/C [8]: 80.6%
viability, T/C [9]: 17.1%
viability, T/C [10]: 6.87%
viability, T/C [11]: 8.05%
viability, T/C [12]: 13.2%
viability, T/C [13]: 79.7%
viability, T/C [14]: 86.2%
viability, T/C [15]: 19.7%
viability, T/C [16]: 7.74%
viability, T/C [17]: 10.7%
viability, T/C [18]: 12%
viability, T/C [19]: 97.9%
viability, T/C [20]: 58.2%
viability, T/C [21]: 15.4%
viability, T/C [22]: 12.6%
viability, T/C [23]: 12.6%
viability, T/C [24]: 11.5%
viability, T/C [25]: 102%
viability, T/C [26]: 63.8%
viability, T/C [27]: 20.7%
viability, T/C [28]: 9.33%
viability, T/C [29]: 11.3%
viability, T/C [30]: 7.79%
viability, T/C [31]: 73%
viability, T/C [32]: 80.2%
viability, T/C [33]: 29.2%
viability, T/C [34]: 9.97%
viability, T/C [35]: 9.95%
viability, T/C [36]: 11.2%

Nc1ccn(C2OC(CO)C(O)C2(F)F)c(=O)n1 (stereo not drawn) + CCn1c(-c2cccnc2C(C)OC)c2c3cc(ccc31)N1CCOC(CC(NC(=O)C(C(C)C)N(C)C(=O)C3(F)CCN(C(=O)C#CC(C)(C)N(C)C)CC3)C(=O)N3CCCC(N3)C(=O)OCC(C)(C)C2)C1
IC50 (second compound 0.000949 µM): 16.7 nM
IC50 (second compound 0.003 µM): 18.4 nM
IC50 (second compound 0.00949 µM): 15.6 nM
IC50 (second compound 0.03 µM): 16.8 nM
IC50 (second compound 0.0949 µM): 14.1 nM
IC50 (second compound 0.3 µM): 12 nM
viability, T/C [1]: 76.9%
viability, T/C [2]: 79.7%
viability, T/C [3]: 15%
viability, T/C [4]: 7.41%
viability, T/C [5]: 10.3%
viability, T/C [6]: 9.82%
viability, T/C [7]: 91.1%
viability, T/C [8]: 87.6%
viability, T/C [9]: 16.5%
viability, T/C [10]: 7.59%
viability, T/C [11]: 8.56%
viability, T/C [12]: 11.9%
viability, T/C [13]: 87.6%
viability, T/C [14]: 72.9%
viability, T/C [15]: 13.3%
viability, T/C [16]: 9.05%
viability, T/C [17]: 9.37%
viability, T/C [18]: 12.1%
viability, T/C [19]: 91.4%
viability, T/C [20]: 79.9%
viability, T/C [21]: 13.5%
viability, T/C [22]: 8.42%
viability, T/C [23]: 8.07%
viability, T/C [24]: 6.73%
viability, T/C [25]: 87.8%
viability, T/C [26]: 66.9%
viability, T/C [27]: 9.91%
viability, T/C [28]: 4.39%
viability, T/C [29]: 7.38%
viability, T/C [30]: 6.23%
viability, T/C [31]: 71.7%
viability, T/C [32]: 58%
viability, T/C [33]: 8.51%
viability, T/C [34]: 3.06%
viability, T/C [35]: 4.98%
viability, T/C [36]: 5.37%

C=CC(=O)N1CCN(c2nc(OCC3CCCN3C)nc3c(F)c(-c4nc(N)cc(C)c4C(F)(F)F)c(Cl)cc23)C(C)C1 (stereo not drawn) + CCn1c(-c2cccnc2C(C)OC)c2c3cc(ccc31)N1CCOC(CC(NC(=O)C(C(C)C)N(C)C(=O)C3(F)CCN(C(=O)C#CC(C)(C)N(C)C)CC3)C(=O)N3CCCC(N3)C(=O)OCC(C)(C)C2)C1
IC50 (second compound 0.000949 µM): > 1000 nM
IC50 (second compound 0.003 µM): > 1000 nM
IC50 (second compound 0.00949 µM): > 1000 nM
IC50 (second compound 0.03 µM): > 1000 nM
IC50 (second compound 0.0949 µM): > 1000 nM
IC50 (second compound 0.3 µM): > 1000 nM
viability, T/C [1]: 109%
viability, T/C [2]: 90.2%
viability, T/C [3]: 108%
viability, T/C [4]: 88.8%
viability, T/C [5]: 113%
viability, T/C [6]: 89.4%
viability, T/C [7]: 94.2%
viability, T/C [8]: 94.5%
viability, T/C [9]: 96.2%
viability, T/C [10]: 93.4%
viability, T/C [11]: 115%
viability, T/C [12]: 105%
viability, T/C [13]: 92.2%
viability, T/C [14]: 93.6%
viability, T/C [15]: 96.9%
viability, T/C [16]: 94.4%
viability, T/C [17]: 105%
viability, T/C [18]: 108%
viability, T/C [19]: 98.5%
viability, T/C [20]: 105%
viability, T/C [21]: 101%
viability, T/C [22]: 111%
viability, T/C [23]: 117%
viability, T/C [24]: 85.8%
viability, T/C [25]: 88.2%
viability, T/C [26]: 83.7%
viability, T/C [27]: 101%
viability, T/C [28]: 95.1%
viability, T/C [29]: 115%
viability, T/C [30]: 92.2%
viability, T/C [31]: 74.2%
viability, T/C [32]: 74.1%
viability, T/C [33]: 79.6%
viability, T/C [34]: 82%
viability, T/C [35]: 94.4%
viability, T/C [36]: 80.8%
